Reference: article PMC12281475, “Mediator Kinase Inhibitor Selectivity and Activity in Colorectal Cancer” (ACS Chemical Biology, 2025)

Columns and labels:
CDK1_CycA2 = target: T1, CDK1_CycA2 (Homo sapiens, UniProt P06493); assay: Radiometric protein kinase assay (33PanQinase), CDK1_CycA2; format: biochemical
T1 construct: purchased Reaction Biology

CDK1_CycB1 = target: T2, CDK1_CycB1 (Homo sapiens, UniProt P06493); assay: Radiometric protein kinase assay (33PanQinase), CDK1_CycB1; format: biochemical
T2 construct: purchased Reaction Biology

CDK1_CycE1 = target: T3, CDK1_CycE1 (Homo sapiens, UniProt P06493); assay: Radiometric protein kinase assay (33PanQinase), CDK1_CycE1; format: biochemical
T3 construct: purchased Reaction Biology

CDK10_CycQ = CDK10_CycQ (Homo sapiens, UniProt Q15131); assay: Radiometric protein kinase assay (33PanQinase), CDK10_CycQ; format: biochemical
CDK11B 357-795_CycK = CDK11B 357-795_CycK (Homo sapiens, UniProt P21127); assay: Radiometric protein kinase assay (33PanQinase), CDK11B 357-795_CycK; format: biochemical
CDK12_CycK = target: T4, CDK12_CycK (Homo sapiens, UniProt Q9NYV4); assay: Radiometric protein kinase assay (33PanQinase), CDK12_CycK; format: biochemical
T4 construct: purchased Reaction Biology

CDK13_CycK = target: T5, CDK13_CycK (Homo sapiens, UniProt Q14004); assay: Radiometric protein kinase assay (33PanQinase), CDK13_CycK; format: biochemical
T5 construct: purchased Reaction Biology

CDK14_CycY = CDK14_CycY (Homo sapiens, UniProt O94921); assay: Radiometric protein kinase assay (33PanQinase), CDK14_CycY; format: biochemical
CDK15_CycA2 = target: T6, CDK15_CycA2 (Homo sapiens, UniProt Q96Q40); assay: Radiometric protein kinase assay (33PanQinase), CDK15_CycA2; format: biochemical
T6 construct: purchased Reaction Biology

CDK16_CycY = target: T7, CDK16_CycY (Homo sapiens, UniProt Q00536); assay: Radiometric protein kinase assay (33PanQinase), CDK16_CycY; format: biochemical
T7 construct: purchased Reaction Biology

CDK17_p35NCK = CDK17_p35NCK (Homo sapiens, UniProt Q00537); assay: Radiometric protein kinase assay (33PanQinase), CDK17_p35NCK; format: biochemical
CDK18_CycY = CDK18_CycY (Homo sapiens, UniProt Q07002); assay: Radiometric protein kinase assay (33PanQinase), CDK18_CycY; format: biochemical
CDK19_CycC = target: T8, CDK19_CycC (Homo sapiens, UniProt Q9BWU1); assay: Radiometric protein kinase assay (33PanQinase), CDK19_CycC; format: biochemical
T8 construct: purchased Reaction Biology

CDK2_CycA2 = target: T9, CDK2_CycA2 (Homo sapiens, UniProt P24941); assay: Radiometric protein kinase assay (33PanQinase), CDK2_CycA2; format: biochemical
T9 construct: purchased Reaction Biology

CDK2_CycD1 = target: T10, CDK2_CycD1 (Homo sapiens, UniProt P24941); assay: Radiometric protein kinase assay (33PanQinase), CDK2_CycD1; format: biochemical
T10 construct: purchased Reaction Biology

CDK2_CycE1 = target: T11, CDK2_CycE1 (Homo sapiens, UniProt P24941); assay: Radiometric protein kinase assay (33PanQinase), CDK2_CycE1; format: biochemical
T11 construct: purchased Reaction Biology

CDK20_CycH = CDK20_CycH (Homo sapiens, UniProt Q8IZL9); assay: Radiometric protein kinase assay (33PanQinase), CDK20_CycH; format: biochemical
CDK20_CycT1 = CDK20_CycT1 (Homo sapiens, UniProt Q8IZL9); assay: Radiometric protein kinase assay (33PanQinase), CDK20_CycT1; format: biochemical
CDK3_CycC = target: T12, CDK3_CycC (Homo sapiens, UniProt Q00526); assay: Radiometric protein kinase assay (33PanQinase), CDK3_CycC; format: biochemical
T12 construct: purchased Reaction Biology

CDK3_CycE1 = target: T13, CDK3_CycE1 (Homo sapiens, UniProt Q00526); assay: Radiometric protein kinase assay (33PanQinase), CDK3_CycE1; format: biochemical
T13 construct: purchased Reaction Biology

CDK4_CycD1 = target: T14, CDK4_CycD1 (Homo sapiens, UniProt P11802); assay: Radiometric protein kinase assay (33PanQinase), CDK4_CycD1; format: biochemical
T14 construct: purchased Reaction Biology

CDK4_CycD2 = target: T15, CDK4_CycD2 (Homo sapiens, UniProt P11802); assay: Radiometric protein kinase assay (33PanQinase), CDK4_CycD2; format: biochemical
T15 construct: purchased Reaction Biology

CDK4_CycD3 = target: T16, CDK4_CycD3 (Homo sapiens, UniProt P11802); assay: Radiometric protein kinase assay (33PanQinase), CDK4_CycD3; format: biochemical
T16 construct: purchased Reaction Biology

CDK5_p25NCK = target: T17, CDK5_p25NCK (Homo sapiens, UniProt Q00535); assay: Radiometric protein kinase assay (33PanQinase), CDK5_p25NCK; format: biochemical
T17 construct: purchased Reaction Biology

CDK5_p35NCK = target: T18, CDK5_p35NCK (Homo sapiens, UniProt Q00535); assay: Radiometric protein kinase assay (33PanQinase), CDK5_p35NCK; format: biochemical
T18 construct: purchased Reaction Biology

CDK6_CycD1 = target: T19, CDK6_CycD1 (Homo sapiens, UniProt Q00534); assay: Radiometric protein kinase assay (33PanQinase), CDK6_CycD1; format: biochemical
T19 construct: purchased Reaction Biology

CDK6_CycD2 = target: T20, CDK6_CycD2 (Homo sapiens, UniProt Q00534); assay: Radiometric protein kinase assay (33PanQinase), CDK6_CycD2; format: biochemical
T20 construct: purchased Reaction Biology

CDK6_CycD3 = target: T21, CDK6_CycD3 (Homo sapiens, UniProt Q00534); assay: Radiometric protein kinase assay (33PanQinase), CDK6_CycD3; format: biochemical; conditions: slope of the IC50 fit
T21 construct: purchased Reaction Biology

CDK7_CycH_MAT1 = target: T22, CDK7_CycH_MAT1 (Homo sapiens, UniProt P50613); assay: Radiometric protein kinase assay (33PanQinase), CDK7_CycH_MAT1; format: biochemical
T22 construct: purchased Reaction Biology

CDK8_CycC = target: T23, CDK8_CycC (Homo sapiens, UniProt P49336); assay: Radiometric protein kinase assay (33PanQinase), CDK8_CycC; format: biochemical
T23 construct: purchased Reaction Biology

CDK9_CycK = target: T24, CDK9_CycK (Homo sapiens, UniProt P50750); assay: Radiometric protein kinase assay (33PanQinase), CDK9_CycK; format: biochemical
T24 construct: purchased Reaction Biology

CDK9_CycT1 = target: T25, CDK9_CycT1 (Homo sapiens, UniProt P50750); assay: Radiometric protein kinase assay (33PanQinase), CDK9_CycT1; format: biochemical
T25 construct: purchased Reaction Biology

COLO205 cells = assay: Promoter reporter panel (transient luciferase constructs), COLO205; format: cell-based, human; conditions: COLO205, 350 nM, 6 h
Experimental: Transcription factor activity was assayed in cell lines using 45 different plasmid reporter constructs encoding firefly luciferase under the control of a basal promoter element downstream of specific transcriptional response elements (Qiagen, Germany; Supporting Table S1). Firefly luciferase under the control of basal promoter element alone was used to establish the baseline signal and cotransfection of a construct expressing renilla luciferase from a CMV-promoter was used as a transfection control. Cells were reverse-transfected with reporter plasmids, compounds were added 42 h post transfection and reporter activity quantified following 6 h continuous exposure.
Transcription factor promoter reporter assays were carried out to define signalling pathways and biological processes modulated by CDK8/19 ligands. A panel of plasmid reporter constructs encoding firefly luciferase under the control of a basal promoter element with specific transcriptional response elements were used (Qiagen, Germany;
Firefly luciferase under the control of the minimal promoter element (TATA box) alone was used to establish the base-line signal and a construct expressing renilla luciferase from a CMV-promoter was used as a transfection control. COLO205 human colon cancer cells or SW620 parental and CRISPR KO cells were reverse-transfected with the panel of plasmid reporters in a 96 well plate format. The reporter mixes were prepared at 40:1 ratio of fLUC to rLUC plasmid at a final concentration of
100 ng/ml. For each well 1 ul plasmid was complexed with 1 ul Lipofectamine 2000
(Thermo Fisher Scientific, UK) in 50 ul OptiMEM (Thermo Fisher Scientific, UK) media
for 20 mins at room temperature. Cells were trypsinised and 50 ul of cells at 2e5
cells/ml in supplemented DMEM were added to the 50 ul of plasmid:lipofectamine
mixture in OptiMEM in a well of a 96-well white opaque flat bottom microtiter plate.
fLUC and rLUC were measured by the addition of 100 ul dual glo luciferase reagent
(Promega, USA). Reporter activity was quantified in untreated cells 48 hours post- […]

CDK8 = system: CDK8; design: method as in numbers not given; conditions: reporter displacement assay; previously characterized compounds, no method in this paper; ref numbers not given; read-out: IC50 for in vitro CDK8 binding; cited from earlier work
[1] = highest assay concentration 1.00E-05 M

CDK20_CycT1, sequence (Q8IZL9 whole entry): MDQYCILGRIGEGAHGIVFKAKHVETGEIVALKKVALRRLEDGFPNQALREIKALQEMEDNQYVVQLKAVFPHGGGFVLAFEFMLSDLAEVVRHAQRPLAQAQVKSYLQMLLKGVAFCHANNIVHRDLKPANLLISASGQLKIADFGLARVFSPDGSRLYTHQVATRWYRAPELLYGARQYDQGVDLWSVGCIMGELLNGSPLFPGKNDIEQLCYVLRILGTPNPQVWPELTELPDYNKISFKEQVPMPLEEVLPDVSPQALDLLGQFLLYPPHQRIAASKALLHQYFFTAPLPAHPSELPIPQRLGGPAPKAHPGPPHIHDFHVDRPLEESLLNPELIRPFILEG
CDK20_CycH, sequence (Q8IZL9 whole entry): as above
T12 sequence (Q00526 whole entry): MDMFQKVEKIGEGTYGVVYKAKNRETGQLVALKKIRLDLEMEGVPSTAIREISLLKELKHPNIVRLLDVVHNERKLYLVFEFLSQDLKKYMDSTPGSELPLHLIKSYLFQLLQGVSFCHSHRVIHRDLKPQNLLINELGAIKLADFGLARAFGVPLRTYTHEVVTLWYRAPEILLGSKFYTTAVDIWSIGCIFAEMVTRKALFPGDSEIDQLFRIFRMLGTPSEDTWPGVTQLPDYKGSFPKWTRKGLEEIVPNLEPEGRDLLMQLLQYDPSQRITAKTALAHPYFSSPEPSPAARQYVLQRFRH
T12 sequence (P24863 whole entry partner): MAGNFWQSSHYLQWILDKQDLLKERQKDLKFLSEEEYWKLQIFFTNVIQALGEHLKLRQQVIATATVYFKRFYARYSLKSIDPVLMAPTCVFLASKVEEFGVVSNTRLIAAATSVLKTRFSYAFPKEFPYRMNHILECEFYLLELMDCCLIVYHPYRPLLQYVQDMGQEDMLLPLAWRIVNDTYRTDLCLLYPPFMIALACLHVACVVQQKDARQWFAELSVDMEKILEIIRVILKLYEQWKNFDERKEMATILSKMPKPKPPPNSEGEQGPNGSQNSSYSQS
T4 sequence (Q9NYV4 whole entry): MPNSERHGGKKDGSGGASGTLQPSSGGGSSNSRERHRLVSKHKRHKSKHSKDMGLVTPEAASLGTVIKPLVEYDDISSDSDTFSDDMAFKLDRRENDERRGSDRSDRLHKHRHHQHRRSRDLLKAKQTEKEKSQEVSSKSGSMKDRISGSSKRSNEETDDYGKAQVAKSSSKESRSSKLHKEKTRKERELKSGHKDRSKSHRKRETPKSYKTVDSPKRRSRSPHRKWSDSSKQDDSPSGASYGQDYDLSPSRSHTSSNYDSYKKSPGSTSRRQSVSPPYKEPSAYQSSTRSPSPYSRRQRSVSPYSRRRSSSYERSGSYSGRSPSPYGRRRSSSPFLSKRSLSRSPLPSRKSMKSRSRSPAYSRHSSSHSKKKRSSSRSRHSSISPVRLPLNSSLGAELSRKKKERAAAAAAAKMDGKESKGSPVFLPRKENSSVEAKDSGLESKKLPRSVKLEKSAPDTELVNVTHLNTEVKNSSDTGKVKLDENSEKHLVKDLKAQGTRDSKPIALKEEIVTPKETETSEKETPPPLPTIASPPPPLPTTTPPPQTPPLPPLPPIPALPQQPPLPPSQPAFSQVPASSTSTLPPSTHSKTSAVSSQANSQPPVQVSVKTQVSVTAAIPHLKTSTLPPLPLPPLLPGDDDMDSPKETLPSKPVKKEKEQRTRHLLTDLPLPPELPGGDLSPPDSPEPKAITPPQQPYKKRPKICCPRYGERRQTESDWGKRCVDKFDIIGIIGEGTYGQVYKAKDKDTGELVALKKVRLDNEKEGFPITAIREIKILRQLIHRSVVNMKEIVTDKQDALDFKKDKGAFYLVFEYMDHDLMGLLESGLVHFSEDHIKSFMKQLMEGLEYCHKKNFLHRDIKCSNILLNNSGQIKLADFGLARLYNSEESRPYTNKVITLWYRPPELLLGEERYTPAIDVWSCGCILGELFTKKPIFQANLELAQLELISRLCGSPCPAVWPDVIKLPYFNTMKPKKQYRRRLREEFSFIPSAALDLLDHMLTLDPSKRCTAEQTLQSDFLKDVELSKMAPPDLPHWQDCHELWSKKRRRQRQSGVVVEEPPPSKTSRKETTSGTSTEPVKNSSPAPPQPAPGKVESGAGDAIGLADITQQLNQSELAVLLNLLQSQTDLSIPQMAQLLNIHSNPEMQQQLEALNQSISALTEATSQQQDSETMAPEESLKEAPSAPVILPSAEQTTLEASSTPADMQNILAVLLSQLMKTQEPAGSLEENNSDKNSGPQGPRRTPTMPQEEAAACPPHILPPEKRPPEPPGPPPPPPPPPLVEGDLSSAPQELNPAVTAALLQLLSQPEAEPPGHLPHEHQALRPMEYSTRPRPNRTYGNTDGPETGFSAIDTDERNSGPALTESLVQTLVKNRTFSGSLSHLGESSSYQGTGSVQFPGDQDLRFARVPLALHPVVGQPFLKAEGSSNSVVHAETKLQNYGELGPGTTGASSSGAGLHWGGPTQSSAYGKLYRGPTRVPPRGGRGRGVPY
T4 sequence (O75909 whole entry partner): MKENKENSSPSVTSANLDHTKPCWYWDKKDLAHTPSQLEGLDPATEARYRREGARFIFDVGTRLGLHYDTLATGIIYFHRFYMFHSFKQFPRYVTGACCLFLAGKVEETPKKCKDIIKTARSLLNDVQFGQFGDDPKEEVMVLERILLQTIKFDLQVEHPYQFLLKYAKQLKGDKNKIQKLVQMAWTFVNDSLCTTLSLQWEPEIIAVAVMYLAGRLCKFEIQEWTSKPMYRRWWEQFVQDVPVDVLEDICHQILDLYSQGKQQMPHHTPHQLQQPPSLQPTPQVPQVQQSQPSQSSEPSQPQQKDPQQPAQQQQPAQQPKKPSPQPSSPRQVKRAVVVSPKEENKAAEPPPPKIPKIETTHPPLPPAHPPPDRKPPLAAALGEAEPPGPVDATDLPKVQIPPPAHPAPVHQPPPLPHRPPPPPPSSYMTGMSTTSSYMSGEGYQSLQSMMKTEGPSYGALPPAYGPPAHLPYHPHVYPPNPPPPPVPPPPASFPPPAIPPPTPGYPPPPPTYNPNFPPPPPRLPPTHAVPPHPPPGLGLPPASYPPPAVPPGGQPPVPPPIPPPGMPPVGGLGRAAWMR
CDK17_p35NCK, sequence (Q00537 whole entry): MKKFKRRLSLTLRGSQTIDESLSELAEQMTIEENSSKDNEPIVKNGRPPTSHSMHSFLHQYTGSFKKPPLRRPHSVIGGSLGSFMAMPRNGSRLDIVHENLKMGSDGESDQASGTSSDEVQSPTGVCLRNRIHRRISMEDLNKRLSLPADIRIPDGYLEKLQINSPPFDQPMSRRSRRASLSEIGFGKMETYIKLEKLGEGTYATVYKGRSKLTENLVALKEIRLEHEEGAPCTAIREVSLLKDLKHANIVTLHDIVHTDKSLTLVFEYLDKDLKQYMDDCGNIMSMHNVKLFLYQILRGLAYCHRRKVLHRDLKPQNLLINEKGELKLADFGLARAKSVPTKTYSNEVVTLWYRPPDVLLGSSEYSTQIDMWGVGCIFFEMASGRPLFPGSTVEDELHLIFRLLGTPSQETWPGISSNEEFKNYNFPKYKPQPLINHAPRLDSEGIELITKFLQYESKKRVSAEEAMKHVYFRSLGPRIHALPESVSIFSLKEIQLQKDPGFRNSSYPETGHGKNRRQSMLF
T15 sequence (P11802 whole entry): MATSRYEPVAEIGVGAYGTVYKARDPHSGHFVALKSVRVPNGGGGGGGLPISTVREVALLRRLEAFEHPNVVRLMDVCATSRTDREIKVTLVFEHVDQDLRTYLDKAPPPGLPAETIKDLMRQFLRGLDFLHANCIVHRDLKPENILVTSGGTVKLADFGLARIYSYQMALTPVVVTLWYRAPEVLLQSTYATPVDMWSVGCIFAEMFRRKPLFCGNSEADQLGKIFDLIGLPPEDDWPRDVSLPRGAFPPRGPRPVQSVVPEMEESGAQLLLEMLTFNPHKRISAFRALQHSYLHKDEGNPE
T15 sequence (P30279 whole entry partner): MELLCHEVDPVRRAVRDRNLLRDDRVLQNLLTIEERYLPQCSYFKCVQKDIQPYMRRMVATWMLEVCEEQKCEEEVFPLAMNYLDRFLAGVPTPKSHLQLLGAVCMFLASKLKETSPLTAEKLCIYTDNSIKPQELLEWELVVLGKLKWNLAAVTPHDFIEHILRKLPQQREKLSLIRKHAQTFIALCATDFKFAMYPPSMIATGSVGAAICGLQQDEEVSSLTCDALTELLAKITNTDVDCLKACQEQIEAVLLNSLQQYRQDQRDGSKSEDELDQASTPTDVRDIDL
T16 sequence (P11802 whole entry): as the sequence (P11802 whole entry) above
T16 sequence (P30281 whole entry partner): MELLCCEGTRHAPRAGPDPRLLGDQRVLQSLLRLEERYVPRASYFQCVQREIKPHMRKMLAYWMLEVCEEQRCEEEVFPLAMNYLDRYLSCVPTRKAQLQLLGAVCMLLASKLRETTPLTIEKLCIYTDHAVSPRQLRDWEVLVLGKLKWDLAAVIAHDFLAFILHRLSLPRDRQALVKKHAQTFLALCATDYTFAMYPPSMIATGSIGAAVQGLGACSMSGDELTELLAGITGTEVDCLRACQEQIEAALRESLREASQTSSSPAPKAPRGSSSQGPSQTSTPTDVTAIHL
T20 sequence (Q00534 whole entry): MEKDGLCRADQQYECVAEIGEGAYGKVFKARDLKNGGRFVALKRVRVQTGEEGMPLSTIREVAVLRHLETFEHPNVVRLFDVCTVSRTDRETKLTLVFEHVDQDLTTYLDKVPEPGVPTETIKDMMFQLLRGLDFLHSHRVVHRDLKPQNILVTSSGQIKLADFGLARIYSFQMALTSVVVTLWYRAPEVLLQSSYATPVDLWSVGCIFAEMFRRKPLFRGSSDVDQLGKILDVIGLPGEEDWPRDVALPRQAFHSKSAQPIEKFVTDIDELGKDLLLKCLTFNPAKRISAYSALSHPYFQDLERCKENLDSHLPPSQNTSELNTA
T20 sequence (P30279 whole entry partner): as the sequence (P30279 whole entry partner) above
T21 sequence (Q00534 whole entry): as the sequence (Q00534 whole entry) above
T21 sequence (P30281 whole entry partner): as the sequence (P30281 whole entry partner) above

In the case of Cc1n[nH]c2ncc(C(=O)N3CCC[C@H]3c3ccc(Cl)cc3)cc12 [MSC2530818], the IC50 (CDK1_CycA2) is reported as 6.46 µM, the “Hill Slope” value (CDK1_CycA2; slope of the IC50 fit) is reported as -0.93 and the IC50 (CDK1_CycB1; [1]) is reported as greater than 10 µM. For the same compound, the “Hill Slope” value (CDK1_CycB1; slope of the IC50 fit) was -0.72, the IC50 (CDK1_CycE1) was 4.15 µM and the “Hill Slope” value (CDK1_CycE1; slope of the IC50 fit) was -0.97. The IC50 (CDK10_CycQ; [1]) was greater than 10 µM, the “Hill Slope” value (CDK10_CycQ; slope of the IC50 fit) was -1.12 and the IC50 (CDK11B 357-795_CycK; [1]) was greater than 10 µM. The “Hill Slope” value (CDK11B 357-795_CycK; slope of the IC50 fit) was -0.64, the IC50 (CDK12_CycK; [1]) was 9.75 µM and the “Hill Slope” value (CDK12_CycK; slope of the IC50 fit) was -0.59. For the same compound, the IC50 (CDK13_CycK) was greater than 10 µM, the “Hill Slope” value (CDK13_CycK; slope of the IC50 fit) was -0.19 and the IC50 (CDK14_CycY; [1]) was greater than 10 µM. For the same compound, the “Hill Slope” value (CDK14_CycY; slope of the IC50 fit) was -1, the IC50 (CDK15_CycA2; [1]) was greater than 10 µM and the “Hill Slope” value (CDK15_CycA2; slope of the IC50 fit) was -0.85. The IC50 (CDK16_CycY; [1]) was greater than 10 µM, the “Hill Slope” value (CDK16_CycY; slope of the IC50 fit) was -0.58 and the IC50 (CDK17_p35NCK; [1]) was greater than 10 µM. For the same compound, the “Hill Slope” value (CDK17_p35NCK; slope of the IC50 fit) was -0.57, the IC50 (CDK18_CycY; [1]) was 3.72 µM and the “Hill Slope” value (CDK18_CycY; slope of the IC50 fit) was -1.14. The IC50 (CDK19_CycC) was 355 nM, the “Hill Slope” value (CDK19_CycC; slope of the IC50 fit) was -0.43 and the IC50 (CDK2_CycA2) was 6.53 µM. For the same compound, the IC50 (CDK2_CycD1) was 9.73 µM, the “Hill Slope” value (CDK2_CycD1; slope of the IC50 fit) was -1.08 and the IC50 (CDK2_CycE1) was 2920 nM. For the same compound, the “Hill Slope” value (CDK2_CycE1; slope of the IC50 fit) was -1.29, the IC50 (CDK20_CycH; [1]) was greater than 10 µM and the “Hill Slope” value (CDK20_CycH; slope of the IC50 fit) was -0.81. The IC50 (CDK20_CycT1; [1]) was greater than 10 µM, the “Hill Slope” value (CDK20_CycT1; slope of the IC50 fit) was -0.44 and the IC50 (CDK3_CycC) was 6.41 µM. The “Hill Slope” value (CDK3_CycC; slope of the IC50 fit) was -0.76, the IC50 (CDK3_CycE1) was greater than 10 µM and the “Hill Slope” value (CDK3_CycE1; slope of the IC50 fit) was -0.54. The IC50 (CDK4_CycD1; [1]) was greater than 10 µM, the “Hill Slope” value (CDK4_CycD1; slope of the IC50 fit) was -0.48 and the IC50 (CDK4_CycD2; [1]) was greater than 10 µM. For the same compound, the “Hill Slope” value (CDK4_CycD2; slope of the IC50 fit) was -0.44, the IC50 (CDK4_CycD3; [1]) was greater than 10 µM and the “Hill Slope” value (CDK4_CycD3; slope of the IC50 fit) was -0.71. The IC50 (CDK5_p25NCK; [1]) was greater than 10 µM, the “Hill Slope” value (CDK5_p25NCK; slope of the IC50 fit) was -0.57 and the IC50 (CDK5_p35NCK; [1]) was 7.57 µM. The “Hill Slope” value (CDK5_p35NCK; slope of the IC50 fit) was -1.04, the IC50 (CDK6_CycD1; [1]) was greater than 10 µM and the “Hill Slope” value (CDK6_CycD1; slope of the IC50 fit) was -0.22. For the same compound, the IC50 (CDK6_CycD2; [1]) was greater than 10 µM, the “Hill Slope” value (CDK6_CycD2; slope of the IC50 fit) was -1.11 and the “Hill Slope” value (CDK6_CycD3) was -0.25. The IC50 (CDK7_CycH_MAT1; [1]) was greater than 10 µM, the “Hill Slope” value (CDK7_CycH_MAT1; slope of the IC50 fit) was -0.6 and the IC50 (CDK8_CycC) was 114 nM. For the same compound, the “Hill Slope” value (CDK8_CycC; slope of the IC50 fit) was -0.45, the IC50 (CDK9_CycK; [1]) was greater than 10 µM and the “Hill Slope” value (CDK9_CycK; slope of the IC50 fit) was -0.78. For the same compound, the IC50 (CDK9_CycT1; [1]) was greater than 10 µM, the “Hill Slope” value (CDK9_CycT1; slope of the IC50 fit) was -1.26 and the “reduction of activity of TCF/LEF, SP1 and PAX6 reporter constructs” value (COLO205 cells) was greater than 1.5 fold. The IC50 (CDK8) was 4.4 nM.
